Results published in patent publication US4097582A, “6',2-(2'-Arylchromonyl) propionic acids, and analgesic and anti-inflammatory derivatives thereof” (Lipha, Lyonnaise Industrielle Pharmaceutique, priority 1974, dated 1978).
Where a name gives a salt, the structure may show the parent alone. Read-outs that look alike come from different tables or passages of the source.

Key:
[1] = system: carrageenin-induced oedema; assay: carrageenin-induced oedema test upon rats, anti-inflammatory effect (Winter et al.); format: in vivo; conditions: Rattus norvegicus, phenylbutazone control, read-out: Carrageenin (A.D. 30, mg/kg)
Protocol: (§1) The pharmacological, analgesic and anti-inflammatory effectiveness and the slightly ulcerating effect of the propionic acids and their functional derivatives was determined by various methods. The compounds are identified by the numbers of the examples.
The anti-inflammatory effect of the compounds claimed was established, inter alia, by the carrageenin-induced oedema test upon rats (Winter et al. -- Proc. Soc. Exp. Biol. Med. 1962, Vol. III, pages 544 and 547). The results obtained with certain of the compounds of the invention are given below in Table II (phenylbutazone was used as a control).

[2] = system: acetic test upon mice; assay: acetic test upon mice, analgesic effect (Siegmund method as modified by Koster, Anderson and Debeer); format: in vivo; conditions: Mus musculus
Description: The compounds are identified by the numbers of the examples.

[3] = observations made during clinical trials; format: in vivo, human (patients: Mrs. / Mr.)
Protocol: Pharmaceutical compositions comprising a compound of the invention as their active ingredient and a physiologically acceptable, solid or liquid pharmaceutical excipient or diluent enable the active ingredient to be administered in daily doses of from 20 to 1000 mg. Among the observations made during clinical trials with the compound of Example 13 the following may be mentioned:
Among the observations made during clinical trials of the compound of Example 22 may be mentioned the following five: […]

[4] = system: ulcers; assay: aggravation of ulcers already caused in rats (Shay et al.), ulcerating effect; format: in vivo
Protocol: as §1
The compounds were compared with phenylbutazone in order to evaluate their ulcerating effect. The method used was that of aggravating ulcers which has already been caused in rats by the procedure described by Shay et al (Gastroenterology, 1945, Vol. 5, pages 43 to 61).

[5] = recently discovered; cited from earlier work
[6] = mice, acetic test, aspirin control, read-out: ED50
[7] = A person, cervical pain from arthritic spine, four 100 mg tablets per day, 8 days
[8] = A person, pseudoarthrosis of the knee, five 100 mg tablets per day, 8 days
[9] = A person, stripping of varicose veins, six 100 mg tablets per day, 5 days
[10] = person one, sciatica, four 100 mg tablets per day, 10 days
[11] = person two, post-fracture gonarthrosis, four 100 mg tablets per day, 10 days
[12] = A person, inflammation of arteries in lower limbs, four 150 mg tablets per day, five days
[13] = A person, lumbar arthrosis, six 150 mg tablets per day, 10 days
[14] = A person, removal of left knee-cap, six 150 mg tablets per day, 5 days
[15] = A person, very intense lumbar pain, four 150 mg tablets per day, ten days

With `CC(C(=O)O)c1ccc2oc(-c3cccs3)cc(=O)c2c1` (stereo not drawn) [Example 13, 2-[2'-(α-Thienyl)-6'-chromonyl]propionic acid] the ED30 [1] was 10 mg/kg, the ED50 [2, 6] was 1.5 mg/kg and the analgesic effect [3, 7] was “good”. The “movement in the neck” value [3, 7] was “restored movement to normal amplitude in the neck unaccompanied by pain”, the antiinflammatory effect [3, 8] was “very good” and the “duration of relief of pain” value [3, 8] was “three”. For the same compound, the relief of pain [3, 8] was “good”, the duration of relief [3, 9] was 3 h and the relief [3, 9] was “complete”. The “time after administration until relief apparent” value [3, 9] was “less than 30 minutes”, the tolerance ([3]; A person, five 100 mg tablets per day, 8 days) was “perfect” and the tolerance ([3]; A person, four 100 mg tablets per day, 8 days) was “very good”. The tolerance ([3]; A person, six 100 mg tablets per day, 5 days) was “very good”, the analgesic effect [3, 10] was “excellent” and the “improvement in the results of the Lasegue test” value [3, 10] was “from 45 to 75”. For the same compound, the tolerance ([3]; person one, four 100 mg tablets per day, 10 days) was “complete”, the analgesic effect [3, 11] was “very positive” and the knee flexion improvement [3, 11] was “from 15 to 25”. The “results on the knee” value [3, 11] was “excellent”, the “temperature of the knee” value [3, 11] was “returned to its normal temperature” and the tolerance ([3]; person two, four 100 mg tablets per day, 10 days) was “good”. The “Aggravation of ulceration, Coefficient” value ([4]; dose 300 mg/kg body weight/PO) was 50.
For `CCCCC1C(=O)N(c2ccccc2)N(c2ccccc2)C1=O` [Phenylbutazone, reference compound], the ED30 [1] was 50 mg/kg and the “Aggravation of ulceration, Coefficient” value ([4]; dose 200 mg/kg body weight/PO) was 100.
In the case of `O=C(O)Cc1ccc2oc(-c3ccccc3)cc(=O)c2c1` [6-(2-Phenylchromonyl) acetic acid], the choleretic activity [5] is listed as “choleretic activity”.
With `CC(C(=O)O)c1ccc2oc(-c3ccccc3)cc(=O)c2c1` (stereo not shown) [Example 22, 2-(6'-Flavonyl)propionic acid] the ED30 [1] was 65 mg/kg, the ED50 [2, 6] was 9 mg/kg and the duration of relief [3, 12] was “more than three”. The relief [3, 12] was “very distinct relief”, the “time after administration until relief” value [3, 12] was “less than 30 minutes” and the duration of relief [3, 13] was “three”. The functional improvement [3, 13] was “appreciable functional improvement”, the “time after administration until relief” value [3, 13] was “thirty” and the “results against pain and signs of inflammation” value ([3]; A person, pain in neck and arm, four 150 mg tablets per day, eight days) was “very good”. For the same compound, the duration of relief [3, 14] was greater than 3 h, the relief [3, 14] was “complete” and the “time until relief appears” value [3, 14] was “less than 30 minutes”. The antalgic effect [3, 15] was “excellent”, the “distance which the patient could move their fingertips towards the ground” value [3, 15] was “from 40 to 5” and the improvement [3, 15] was “very pronounced improvement”. The tolerance ([3]; A person, four 150 mg tablets per day, eight days) was “complete”, the tolerance ([3]; A person, four 150 mg tablets per day, five days) was “satisfactory” and the tolerance ([3]; A person, four 150 mg tablets per day, ten days) was “complete”. For the same compound, the tolerance ([3]; A person, six 150 mg tablets per day, 5 days) was “good”, the tolerance ([3]; A person, six 150 mg tablets per day, 10 days) was “complete” and the “Aggravation of ulceration, Coefficient” value ([4]; dose 300 mg/kg body weight/PO) was 60.
For `CCCOC(=O)C(C)c1ccc2oc(-c3ccccc3)cc(=O)c2c1` (stereo not shown) [Example 25, Propyl 2-(2'-phenyl-6'-chromonyl)propionate], the ED30 [1] was 85 mg/kg and the ED50 [2, 6] was 6 mg/kg.
`CC(=O)Oc1ccccc1C(=O)O` [Aspirin, reference compound] showed an ED50 [2] of 130 mg/kg.
With `COC(=O)C(C)c1ccc2oc(-c3cccs3)cc(=O)c2c1` (stereo not drawn) [Example 29, Methyl 2-[2'-(α-thienyl)-6'-chromonyl]propionate] the ED30 [1] was 37 mg/kg and the ED50 [2, 6] was 2.3 mg/kg.
Work on `CC(C(=O)OCCN1CCOCC1)c1ccc2oc(-c3cccs3)cc(=O)c2c1` (stereo not drawn) [Example 32, The acid oxalate of β-morpholinoethyl-2-[2'-(α-thienyl)-6'-chromonyl]propionate] yielded an ED50 [2, 6] of 4.6 mg/kg.
